Measurements published in US10590105B2, “1,3-dihydroxy-phenyl derivatives useful as immunomodulators” (BRISTOL-MYERS SQUIBB COMPANY, priority 2016, dated 2020).

Biological target: PD-1/PD-L1 interaction (PD-1-Ig / PD-L1-His) (Homo sapiens (Human), UniProt Q9NZQ7)
Assay: PD-1/PD-L1 Homogenous Time-Resolved Fluorescence (HTRF) binding assay
Conditions: PD-1/PD-L1 HTRF binding assay; value given as range class; read-out: Range or IC50
Excerpt: The ability of the compounds of formula (I) to bind to PD-L1 was investigated using a PD-1/PD-L1 Homogenous Time-Resolved Fluorescence (HTRF) binding assay.
Homogenous Time-Resolved Fluorescence (HTRF) Binding Assay.
The interaction of PD-1 and PD-L1 can be assessed using soluble, purified preparations of the extracellular domains of the two proteins. The PD-1 and PD-L1 protein extracellular domains were expressed as fusion proteins with detection tags, for PD-1, the tag was the Fc portion of Immunoglobulin (PD-1-Ig) and for PD-L1 it was the 6 histidine motif (PD-L1-His). All binding studies were performed in an HTRF assay buffer consisting of dPBS supplemented with 0.1% […] bovine serum albumin and 0.05% (v/v) Tween-20. For the h/PD-L1-His binding assay, inhibitors were pre-incubated with PD-L1-His (10 nM final) for 15 m in 4 μl of assay buffer, followed by addition of PD-1-Ig (20 nM final) in 1 μl of assay buffer and further incubation for 15 m. HTRF detection was achieved using europium crypate-labeled anti-Ig (1 nM final) and allophycocyanin (APC) labeled anti-His (20 nM final). Antibodies were diluted in HTRF detection buffer and 5 μl was dispensed on top of the binding reaction. The reaction mixture was allowed to equilibrate for 30 minutes and the resulting signal (665 nm/620 nm ratio) was obtained using an EnVision fluorometer. Additional binding assays were established between the human proteins PD-1-Ig/PD-L2-His (20 & 5 nM, respectively) and CD80-His/PD-L1-Ig (100 & 10 nM, respectively).
Recombinant Proteins. Human PD-1 (25-167) with a C-terminal human Fc domain of immunoglobulin G (Ig) epitope tag [hPD-1 (25-167)-3S-IG] and human PD-L1 (18-239) with a C-terminal His epitope tag [hPD-L1(18-239)-TVMV-His] were expressed in HEK293T cells and purified sequentially by ProteinA affinity chromatography and size exclusion chromatography. Human PD-L2-His and CD80-His was obtained through commercial sources.
Ranges are as follows: A=0.001 to 0.010 micromolar; B=0.011 to 0.150 micromolar; C=0.151 to 10 micromolar.

Sequence of PD-1/PD-L1 interaction (PD-1-Ig / PD-L1-His) (Q9NZQ7 other isoform, or with tags, fused parts or gaps): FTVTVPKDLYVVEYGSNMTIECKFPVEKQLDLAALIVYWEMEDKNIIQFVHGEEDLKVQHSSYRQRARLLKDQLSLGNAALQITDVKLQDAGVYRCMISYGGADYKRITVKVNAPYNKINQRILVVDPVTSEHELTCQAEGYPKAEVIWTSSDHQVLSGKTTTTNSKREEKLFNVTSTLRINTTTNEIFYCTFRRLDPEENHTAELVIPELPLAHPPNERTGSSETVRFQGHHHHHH

IC50 [nM]	Structure (SMILES)
1 to 10	Cc1c(COc2cc(OCc3cncc(C#N)c3)c(CN[C@@](C)(CO)C(=O)O)cc2Cl)cccc1-c1ccc2nccnc2c1 [Example 1036, (S)-2-((5-chloro-2-((5-cyanopyridin-3-yl)methoxy)-4-((2-methyl-3-(quinoxalin-6-yl)benzyl)oxy)benzyl)amino)-3-hydroxy-2-methylpropanoic acid]
1 to 10	Cc1c(COc2cc(OCc3cncc(C#N)c3)c(CN3CCCC[C@H]3C(=O)O)cc2Cl)cccc1-c1ccc2ocnc2c1 [Example 1041, (S)-1-(4-((3-(benzo[d]oxazol-5-yl)-2-methylbenzyl)oxy)-5-chloro-2-((5-cyanopyridin-3-yl)methoxy)benzyl)piperidine-2-carboxylic acid]
11 to 150	Cc1c(COc2cc(OCc3cncc(C#N)c3)c(CNC(C)(C)C(=O)O)cc2Cl)cccc1-c1ccc2scnc2c1 [Example 1022, 2-((4-((3-(benzo[d]thiazol-5-yl)-2-methylbenzyl)oxy)-5-chloro-2-((5-cyanopyridin-3-yl)methoxy)benzyl)amino)-2-methylpropanoic acid]
1 to 10	Cc1c(COc2cc(OCc3cncc(C#N)c3)c(CN[C@H](CO)C(=O)O)cc2Cl)cccc1-c1ccc2nccnc2c1 [Example 1034, (R)-2-((5-chloro-2-((5-cyanopyridin-3-yl)methoxy)-4-((2-methyl-3-(quinoxalin-6-yl)benzyl)oxy)benzyl)amino)-3-hydroxypropanoic acid]
1 to 10	Cc1c(COc2cc(OCc3cncc(C#N)c3)c(CNC(C)(CO)CO)cc2Cl)cccc1-c1nccc(OCCCN2CC[C@@H](O)C2)c1Cl [Example 2002, (R)-5-((4-chloro-5-((3-(3-chloro-4-(3-(3-hydroxypyrrolidin-1-yl)propoxy)pyridin-2-yl)-2-methylbenzyl)oxy)-2-(((1,3-dihydroxy-2-methylpropan-2-yl)amino)methyl)phenoxy)methyl)nicotinonitrile]
151 to 10000	Cc1nn(-c2cccc(COc3cc(OCc4cncc(C#N)c4)c(CN[C@](C)(CO)C(=O)O)cc3Cl)c2C)c(C)c1CN1CC[C@@H](O)C1 [Example 2009, (R)-2-((5-chloro-2-((5-cyanopyridin-3-yl)methoxy)-4-((3-(4-(((R)-3-hydroxypyrrolidin-1-yl)methyl)-3,5-dimethyl-1H-pyrazol-1-yl)-2-methylbenzyl)oxy)benzyl)amino)-3-hydroxy-2-methylpropanoic acid]
151 to 10000	Cc1c(COc2cc(OCc3cncc(C#N)c3)c(CN3CCCC[C@H]3C(=O)O)cc2Cl)cccc1-c1cccn(CCCN2CC[C@@H](O)C2)c1=O [Example 1039, (S)-1-(5-chloro-2-((5-cyanopyridin-3-yl)methoxy)-4-((3-(1-(3-((R)-3-hydroxypyrrolidin-1-yl)propyl)-2-oxo-1,2-dihydropyridin-3-yl)-2-methylbenzyl)oxy)benzyl)piperidine-2-carboxylic acid]
11 to 150	Cc1c(OCCCN2CCCCC2)cccc1-c1ccnc(COc2cc(OCc3cncc(C#N)c3)c(CN3CCCC[C@H]3C(=O)O)cc2Cl)c1C [Example 2014, (S)-1-(5-chloro-2-((5-cyanopyridin-3-yl)methoxy)-4-((3-methyl-4-(2-methyl-3-(3-(piperidin-1-yl)propoxy)phenyl)pyridin-2-yl)methoxy)benzyl)piperidine-2-carboxylic acid]
1 to 10	Cc1c(COc2cc(OCc3cncc(C#N)c3)c(CN[C@](C)(CO)C(=O)O)cc2Cl)cccc1-c1ccc2scnc2c1 [Example 1021, (R)-2-((4-((3-(benzo[d]thiazol-5-yl)-2-methylbenzyl)oxy)-5-chloro-2-((5-cyanopyridin-3-yl)methoxy)benzyl)amino)-3-hydroxy-2-methylpropanoic acid]
11 to 150	Cc1c(COc2cc(OCc3cncc(C#N)c3)c(CN[C@](C)(CO)C(=O)O)cc2Cl)cccc1-c1ccc2cnccc2c1 [Example 1009, (R)-2-((5-chloro-2-((5-cyanopyridin-3-yl)methoxy)-4-((3-(isoquinolin-6-yl)-2-methylbenzyl)oxy)benzyl)amino)-3-hydroxy-2-methylpropanoic acid]
11 to 150	Cc1c(COc2cc(OCc3cncc(C#N)c3)c(CN[C@](C)(CO)C(=O)O)cc2Cl)cccc1-c1ccc2occc2c1 [Example 1013, (R)-2-((4-((3-(benzofuran-5-yl)-2-methylbenzyl)oxy)-5-chloro-2-((5-cyanopyridin-3-yl)methoxy)benzyl)amino)-3-hydroxy-2-methylpropanoic acid]
11 to 150	Cc1c(COc2cc(OCc3cncc(C#N)c3)c(CN3CCCC[C@@H]3C(=O)O)cc2Cl)cccc1-c1ccc2nccnc2c1 [Example 1033, (R)-1-(5-chloro-2-((5-cyanopyridin-3-yl)methoxy)-4-((2-methyl-3-(quinoxalin-6-yl)benzyl)oxy)benzyl)piperidine-2-carboxylic acid]
11 to 150	Cc1c(COc2cc(OCc3cncc(C#N)c3)c(CN3CCC[C@@]3(C)C(=O)O)cc2Cl)cccc1-c1ccc2scnc2c1 [Example 1023, (S)-1-(4-((3-(benzo[d]thiazol-5-yl)-2-methylbenzyl)oxy)-5-chloro-2-((5-cyanopyridin-3-yl)methoxy)benzyl)-2-methylpyrrolidine-2-carboxylic acid]
1 to 10	Cc1c(COc2cc(OCc3cncc(C#N)c3)c(CNC(C)(CO)CO)cc2Cl)cccc1-c1nccc(OCCCO)c1Cl [Example 2004, 5-((4-chloro-5-((3-(3-chloro-4-(3-hydroxypropoxy)pyridin-2-yl)-2-methylbenzyl)oxy)-2-(((1,3-dihydroxy-2-methylpropan-2-yl)amino)methyl)phenoxy)methyl)nicotinonitrile]
151 to 10000	Cc1c(COc2cc(OCc3cncc(C#N)c3)c(C=O)cc2Cl)cccc1-c1ccc2oc(CCN3CC[C@@H](O)C3)nc2c1 [Example 1027, (R)-5-((4-chloro-2-formyl-5-((3-(2-(2-(3-hydroxypyrrolidin-1-yl)ethyl)benzo[d]oxazol-5-yl)-2-methylbenzyl)oxy)phenoxy)methyl)nicotinonitrile]
151 to 10000	Cc1c(COc2cc(OCc3cncc(C#N)c3)c(CN3CCCC[C@H]3C(=O)O)cc2Cl)cccc1-c1cnc2ccccc2c1 [Example 1003, (S)-1-(5-chloro-2-((5-cyanopyridin-3-yl)methoxy)-4-((2-methyl-3-(quinolin-3-yl)benzyl)oxy)benzyl) piperidine-2-carboxylic acid]
151 to 10000	Cc1nn(-c2cccc(COc3cc(OCc4cncc(C#N)c4)c(CN4CC[C@@H](O)C4)cc3Cl)c2C)c(C)c1CN1CC[C@@H](O)C1 [Example 2007, 5-((4-chloro-2-(((R)-3-hydroxypyrrolidin-1-yl)methyl)-5-((3-(4-(((R)-3-hydroxypyrrolidin-1-yl)methyl)-3,5-dimethyl-1H-pyrazol-1-yl)-2-methylbenzyl)oxy)phenoxy)methyl)nicotinonitrile]
151 to 10000	Cc1c(COc2cc(OCc3cncc(C#N)c3)c(CN3CCCC[C@H]3C(=O)O)cc2Cl)cccc1-c1cccc(OCCCN2CC[C@@H](O)C2)n1 [Example 1030, (S)-1-(5-chloro-2-((5-cyanopyridin-3-yl)methoxy)-4-((3-(6-(3-((R)-3-hydroxypyrrolidin-1-yl)propoxy)pyridin-2-yl)-2-methylbenzyl)oxy)benzyl)piperidine-2-carboxylic acid]
